System: YAP/TAZ-TEAD transcription
Assay: Reporter gene assay for measuring the inhibition of YAP/TAZ-TEAD transcription (TEAD-responsive element luciferase reporter in Hek293T cells)
Assay type: cell-based
Conditions: Homo sapiens, HEK-293T, 24 hours incubation
Procedure, shortened: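 Hek293T cells transiently transfected with a TEAD-responsive element luciferase reporter were plated onto compounds and incubated 24 h at 37 °C/5% CO2. SteadyLite luminescence gave percent inhibition, normalised to vehicle (0%) and positive control inhibitor (100%); EC50 derived.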

Compound: C=CC(=O)NCc1ccc(-c2ccc(F)cc2)cc1-c1ccn(CC(F)(F)F)n1 [compound 160, N-((4′-fluoro-3-(1-(2,2,2-trifluoroethyl)-1H-pyrazol-3-yl)-[1,1′-biphenyl]-4-yl)methyl)acrylamide]
- EC50: < 1 µM

Compound: C=CC(=O)NCc1ccc(-c2ccc(F)cc2)cc1-c1ccnn1C [compound 163, N-((4′-fluoro-3-(1-methyl-1H-pyrazol-5-yl)-[1,1′-biphenyl]-4-yl)methyl)acrylamide]
- EC50: > 20 µM

Compound: C=CC(=O)NCc1ccc(-c2ccc(F)cc2)cc1-c1cccnc1 [compound 164, N-((4′-fluoro-3-(pyridin-3-yl)-[1,1′-biphenyl]-4-yl)methyl)acrylamide]
- EC50: < 1 µM

Compound: C=CC(=O)NCc1ccc(-c2ccc(C(F)(F)F)cc2)cc1-c1cnn(C2CC2)c1 [compound 168, N-((3-(1-cyclopropyl-1H-pyrazol-4-yl)-4′-(trifluoromethyl)-[1,1′-biphenyl]-4-yl)methyl)acrylamide]
- EC50: < 1 µM

Compound: C=CC(=O)NCc1ccc(-c2ccc(F)cc2)cc1-c1ccnn1C(F)F [compound 171, N-((3-(1-(difluoromethyl)-1H-pyrazol-5-yl)-4′-fluoro-[1,1′-biphenyl]-4-yl)methyl)acrylamide]
- EC50: 1 to 20 µM

Compound: C=CC(=O)NCc1ccc(-c2ccc(C(F)(F)F)cc2)cc1-c1cnn(C(F)F)c1 [compound 173, N-((3-(1-(difluoromethyl)-1H-pyrazol-4-yl)-4′-(trifluoromethyl)-[1,1′-biphenyl]-4-yl)methyl)acrylamide]
- EC50: < 1 µM

Compound: C=CC(=O)NCc1ccc(-c2ccc(F)cc2)cc1-c1ccn(C2(C)CC2)n1 [compound 175, N-((4′-fluoro-3-(1-(1-methylcyclopropyl)-1H-pyrazol-3-yl)-[1,1′-biphenyl]-4-yl)methyl)acrylamide]
- EC50: < 1 µM

Compound: C=CC(=O)NCc1ccc([C@H]2CC[C@H](C(F)(F)F)CC2)cc1-c1ccn(C)n1 [compound 178, trans-N-(2-(1-methyl-1H-pyrazol-3-yl)-4-(4-(trifluoromethyl)cyclohexyl)benzyl)acrylamide]
- EC50: < 1 µM

Compound: C=CC(=O)NCc1ccc(N2CCC(C(F)(F)F)CC2)cc1-c1ccn(C)n1 [compound 181, N-(2-(1-methyl-1H-pyrazol-3-yl)-4-(4-(trifluoromethyl)piperidin-1-yl)benzyl)acrylamide]
- EC50: < 1 µM

Compound: C=CC(=O)NCc1ccc(-c2ccc(F)cc2)cc1C1CCN(C)C1 (centres unmarked) [compound 183, N-((4′-fluoro-3-(1-methylpyrrolidin-3-yl)-[1,1′-biphenyl]-4-yl)methyl)acrylamide]
- EC50: 1 to 20 µM

Compound: C=CC(=O)NCc1ccc(-c2ccc(F)cc2)cc1-c1cnn(C(F)F)n1 [compound 186, N-((3-(2-(difluoromethyl)-2H-1,2,3-triazol-4-yl)-4′-fluoro-[1,1′-biphenyl]-4-yl)methyl)acrylamide]
- EC50: < 1 µM

Compound: C=CC(=O)NCc1ccc(-c2ccc(F)cc2)cc1-c1nnnn1C [compound 189, N-((4′-fluoro-3-(1-methyl-1H-tetrazol-5-yl)-[1,1′-biphenyl]-4-yl)methyl)acrylamide]
- EC50: 1 to 20 µM

Compound: C=CC(=O)NCc1ccc(-c2ccc(F)cc2)cc1-n1ccnn1 [compound 191, N-((4′-fluoro-3-(1H-1,2,3-triazol-1-yl)-[1,1′-biphenyl]-4-yl)methyl)acrylamide]
- EC50: < 1 µM

Compound: C=CC(=O)NCc1c(F)cc(-c2ccc(C(F)(F)F)cc2)cc1-c1ccn(C)n1 [compound 192, N-((3-fluoro-5-(1-methyl-1H-pyrazol-3-yl)-4′-(trifluoromethyl)-[1,1′-biphenyl]-4-yl)methyl)acrylamide]
- EC50: < 1 µM

Compound: C=CC(=O)NCc1ccc(-c2ccc(F)cc2)nc1-c1ccn(CC2CC2)n1 [compound 195, N-((2-(1-(cyclopropylmethyl)-1H-pyrazol-3-yl)-6-(4-fluorophenyl)pyridin-3-yl)methyl)acrylamide]
- EC50: < 1 µM

Compound: C=CC(=O)NCc1ccc(-c2ccc(F)cc2)nc1-c1ccn(C2CC2)n1 [compound 196, N-((2-(1-cyclopropyl-1H-pyrazol-3-yl)-6-(4-fluorophenyl)pyridin-3-yl)methyl)acrylamide]
- EC50: < 1 µM

Compound: C=CC(=O)NCc1ccc(-c2ccc(F)cc2)nc1-c1ccnn1C1CC1 [compound 197, N-((2-(1-cyclopropyl-1H-pyrazol-5-yl)-6-(4-fluorophenyl)pyridin-3-yl)methyl)acrylamide]
- EC50: 1 to 20 µM

Compound: C=CC(=O)NCc1ccc(-c2ccc(F)cc2)nc1-c1nnn(C(F)F)n1 [compound 199, N-((2-(2-(difluoromethyl)-2H-tetrazol-5-yl)-6-(4-fluorophenyl)pyridin-3-yl)methyl)acrylamide]
- EC50: < 1 µM

Compound: C=CC(=O)NCc1ccc(-c2ccc(F)cc2)nc1-c1nn[nH]n1 [compound 200, N-((6-(4-fluorophenyl)-2-(2H-tetrazol-5-yl)pyridin-3-yl)methyl)acrylamide]
- EC50: > 20 µM

Compound: C=CC(=O)NCc1ncc(-c2ccc(F)cc2)cc1-c1nnn(C(F)F)n1 [compound 204, N-((3-(2-(difluoromethyl)-2H-tetrazol-5-yl)-5-(4-fluorophenyl)pyridin-2-yl)methyl)acrylamide]
- EC50: < 1 µM

Compound: CN(C)C/C=C/C(=O)NCc1cnc(-c2ccc(F)cc2)cc1-c1ccn(C(F)F)n1 [compound 208, (E)-N-((4-(1-(difluoromethyl)-1H-pyrazol-3-yl)-6-(4-fluorophenyl)pyridin-3-yl)methyl)-4-(dimethylamino)but-2-enamide]
- EC50: > 20 µM

Compound: C=CC(=O)NCc1cnc(-c2ccc(C(F)(F)F)cc2)cc1-c1ccn(C(F)F)n1 [compound 209, N-((4-(1-(difluoromethyl)-1H-pyrazol-3-yl)-6-(4-(trifluoromethyl)phenyl)pyridin-3-yl)methyl)acrylamide]
- EC50: < 1 µM

Compound: C=CC(=O)NCc1cnc(-c2ccc(Cl)cc2)cc1-c1ccn(C(F)F)n1 [compound 210, N-((6-(4-chlorophenyl)-4-(1-(difluoromethyl)-1H-pyrazol-3-yl)pyridin-3-yl)methyl)acrylamide]
- EC50: < 1 µM

Compound: CCC(=O)NCc1cnc(-c2cccc(F)c2)cc1-c1ccn(C(F)F)n1 [compound 212, N-((4-(1-(difluoromethyl)-1H-pyrazol-3-yl)-6-(3-fluorophenyl)pyridin-3-yl)methyl)propionamide]
- EC50: 1 to 20 µM

Compound: CCC(=O)NCc1cnc(-c2cccc(Cl)c2)cc1-c1ccn(C(F)F)n1 [compound 214, N-((6-(3-chlorophenyl)-4-(1-(difluoromethyl)-1H-pyrazol-3-yl)pyridin-3-yl)methyl)propionamide]
- EC50: > 20 µM

Compound: CCC(=O)NCc1cnc(-c2cccc(C(F)(F)F)c2)cc1-c1ccn(C(F)F)n1 [compound 216, N-((4-(1-(difluoromethyl)-1H-pyrazol-3-yl)-6-(3-(trifluoromethyl)phenyl)pyridin-3-yl)methyl)propionamide]
- EC50: > 20 µM

Compound: C=CC(=O)NCc1cnc(-c2ccc(C(F)F)cc2)cc1-c1ccn(C(F)F)n1 [compound 217, N-((4-(1-(difluoromethyl)-1H-pyrazol-3-yl)-6-(4-(difluoromethyl)phenyl)pyridin-3-yl)methyl)acrylamide]
- EC50: < 1 µM

Compound: C=CC(=O)NCc1cc(-c2ccn(C(F)F)n2)cc(-c2ccc(F)cc2)n1 [compound 218, N-((4-(1-(difluoromethyl)-1H-pyrazol-3-yl)-6-(4-fluorophenyl)pyridin-2-yl)methyl)acrylamide]
- EC50: < 1 µM

Compound: C=CC(=O)NCc1cnc(-c2ccc(C#N)cc2)cc1-c1ccn(C(F)F)n1 [compound 219, N-((6-(4-cyanophenyl)-4-(1-(difluoromethyl)-1H-pyrazol-3-yl)pyridin-3-yl)methyl)acrylamide]
- EC50: < 1 µM

Compound: C=CC(=O)NCc1cnc(-c2cccc(C#N)c2)cc1-c1ccn(C(F)F)n1 [compound 220, N-((6-(3-cyanophenyl)-4-(1-(difluoromethyl)-1H-pyrazol-3-yl)pyridin-3-yl)methyl)acrylamide]
- EC50: < 1 µM

Compound: C=CC(=O)NCc1cnc(-c2ccn(C(F)F)n2)cc1N1CCC(F)(F)CC1 [compound 222, N-((6-(1-(difluoromethyl)-1H-pyrazol-3-yl)-4-(4,4-difluoropiperidin-1-yl)pyridin-3-yl)methyl)acrylamide]
- EC50: 1 to 20 µM

Compound: CCC(=O)NCc1cc(-c2ccc(F)cc2)cc(-c2ccn(C(F)F)n2)n1 [compound 226, N-((6-(1-(difluoromethyl)-1H-pyrazol-3-yl)-4-(4-fluorophenyl)pyridin-2-yl)methyl)propionamide]
- EC50: < 1 µM

Compound: C=CC(=O)NCc1cnc(-c2ccc(F)cc2)cc1-c1cnn(C(F)F)n1 [compound 230, N-((4-(2-(difluoromethyl)-2H-1,2,3-triazol-4-yl)-6-(4-fluorophenyl)pyridin-3-yl)methyl)acrylamide]
- EC50: < 1 µM

Compound: CCC(=O)NCc1cnc(-c2ccc(F)cc2)cc1-c1cc2n(n1)CCCC2 [compound 232, N-((6-(4-fluorophenyl)-4-(4,5,6,7-tetrahydropyrazolo[1,5-a]pyridin-2-yl)pyridin-3-yl)methyl)propionamide]
- EC50: < 1 µM

Compound: CCC(=O)NCc1cc(=O)n(-c2ccc(F)cc2)cc1-c1ccn(C)n1 [compound 236, N-((1-(4-fluorophenyl)-5-(1-methyl-1H-pyrazol-3-yl)-2-oxo-1,2-dihydropyridin-4-yl)methyl)propionamide]
- EC50: 1 to 20 µM

Compound: Cn1ccc(-c2cn(-c3ccc(F)cc3)c(=O)cc2CNS(C)(=O)=O)n1 [compound 237, N-((1-(4-fluorophenyl)-5-(1-methyl-1H-pyrazol-3-yl)-2-oxo-1,2-dihydropyridin-4-yl)methyl)methanesulfonamide]
- EC50: > 20 µM

Compound: CNS(=O)(=O)NCc1cc(=O)n(-c2ccc(F)cc2)cc1-c1ccn(C)n1 [compound 238, N-methyl, N′-((1-(4-fluorophenyl)-5-(1-methyl-1H-pyrazol-3-yl)-2-oxo-1,2-dihydropyridin-4-yl)methyl)sulfamide]
- EC50: > 20 µM

Compound: CCC(=O)NCc1ccc(-c2ccc(F)cc2)cc1-n1ccc(C)n1 [compound 242, N-((4′-fluoro-3-(3-methyl-1H-pyrazol-1-yl)-[1,1′-biphenyl]-4-yl)methyl)propionamide]
- EC50: > 20 µM

From US12552772B2, “2-pyrazole anilines and related analogs for inhibiting YAP/TAZ-TEAD” (KATHOLIEKE UNIVERSITEIT LEUVEN, priority 2021, dated 2026)
